Test results from PubChem BioAssay (NCI).
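Cells were grown in 96-well plates and exposed to each compound for 48 hours at five concentrations; endpoints were interpolated linearly between bracketing concentrations, or set to the highest concentration if not reached. At the GI50, growth is halved. The concentration for full growth arrest is given as TGI.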

How the values were obtained:
Assay in all cases: growth of human tumour cells (NCI), 48 h
HS 578T breast = system: HS 578T breast
MOLT-4 leukemia = system: MOLT-4 leukemia
CAKI-1 renal = system: CAKI-1 renal
RPMI-8226 leukemia = system: RPMI-8226 leukemia
ACHN renal = system: ACHN renal
SF-295 CNS = system: SF-295 CNS
HOP-62 NSCLC = system: HOP-62 NSCLC
MCF7 breast = system: MCF7 breast
SK-MEL-2 melanoma = system: SK-MEL-2 melanoma
NCI-H522 lung = system: NCI-H522 lung
CCRF-CEM leukemia = system: CCRF-CEM leukemia
DU-145 prostate = system: DU-145 prostate
SN12C renal = system: SN12C renal
MDA-MB-231 breast = system: MDA-MB-231 breast
MDA-MB-435 = system: MDA-MB-435
KM12 colon = system: KM12 colon
HT29 colon = system: HT29 colon
TK-10 renal = system: TK-10 renal
SW-620 colon = system: SW-620 colon
NCI/ADR-RES ovarian = system: NCI/ADR-RES ovarian
COLO 205 colon = system: COLO 205 colon
OVCAR-4 ovarian = system: OVCAR-4 ovarian
A498 renal = system: A498 renal
SK-MEL-5 melanoma = system: SK-MEL-5 melanoma
OVCAR-3 ovarian = system: OVCAR-3 ovarian
HCT-116 colon = system: HCT-116 colon
PC-3 prostate = system: PC-3 prostate
SNB-75 CNS = system: SNB-75 CNS

C=C1C(=O)O[C@H]2[C@H]1CC/C(COC(=O)NCC(C)c1ccc(CC(C)C)cc1)=C\CC[C@@]1(C)O[C@@H]21 (stereo partly specified)
GI50 (HS 578T breast): 1.53 µM
TGI (HS 578T breast): 15 µM
GI50 (MOLT-4 leukemia): 0.974 µM
TGI (MOLT-4 leukemia): 3.05 µM
GI50 (CAKI-1 renal): 2.32 µM
TGI (CAKI-1 renal): 6.68 µM
GI50 (RPMI-8226 leukemia): 0.681 µM
TGI (RPMI-8226 leukemia): 1.9 µM
GI50 (ACHN renal): 0.623 µM
TGI (ACHN renal): 1.32 µM
GI50 (SF-295 CNS): 4.44 µM
TGI (SF-295 CNS): 8.69 µM
GI50 (HOP-62 NSCLC): 5.29 µM
TGI (HOP-62 NSCLC): 10.5 µM
GI50 (MCF7 breast): 0.902 µM
TGI (MCF7 breast): 4.18 µM
GI50 (SK-MEL-2 melanoma): 3.86 µM
TGI (SK-MEL-2 melanoma): 8.48 µM
GI50 (NCI-H522 lung): 0.661 µM
TGI (NCI-H522 lung): 1.77 µM
GI50 (CCRF-CEM leukemia): 0.644 µM
TGI (CCRF-CEM leukemia): 3.61 µM
GI50 (DU-145 prostate): 2.93 µM
TGI (DU-145 prostate): 6.95 µM
GI50 (SN12C renal): 1.06 µM
TGI (SN12C renal): 4.14 µM
GI50 (MDA-MB-231 breast): 0.612 µM
TGI (MDA-MB-231 breast): 1.27 µM
GI50 (MDA-MB-435): 1.24 µM
TGI (MDA-MB-435): 4.86 µM
GI50 (KM12 colon): 3.53 µM
TGI (KM12 colon): 8.24 µM
GI50 (HT29 colon): 1.03 µM
TGI (HT29 colon): 2.52 µM
GI50 (TK-10 renal): 3.34 µM
TGI (TK-10 renal): 7.23 µM
GI50 (SW-620 colon): 0.751 µM
TGI (SW-620 colon): 1.79 µM
GI50 (NCI/ADR-RES ovarian): 3.54 µM
TGI (NCI/ADR-RES ovarian): 10.1 µM
GI50 (COLO 205 colon): 1.3 µM
TGI (COLO 205 colon): 5.3 µM
GI50 (OVCAR-4 ovarian): 2.31 µM
TGI (OVCAR-4 ovarian): 6.59 µM
GI50 (A498 renal): 4.36 µM
TGI (A498 renal): 8.68 µM
GI50 (SK-MEL-5 melanoma): 3.97 µM
TGI (SK-MEL-5 melanoma): 8.07 µM
GI50 (OVCAR-3 ovarian): 0.625 µM
TGI (OVCAR-3 ovarian): 1.27 µM
GI50 (HCT-116 colon): 0.641 µM
TGI (HCT-116 colon): 1.32 µM
GI50 (PC-3 prostate): 0.691 µM
TGI (PC-3 prostate): 1.76 µM
GI50 (SNB-75 CNS): 1.21 µM
TGI (SNB-75 CNS): 5.48 µM
